Test results reported in the NIST ThermoML archive (doi:10.1016/j.jct.2013.04.021).
± gives the expanded uncertainty stated by the source.

Conditions: 298.15 K, 101.33 kPa, Liquid; for viscosity: Capillary tube (Ostwald / Ubbelohde) method; for speed of sound: Sing-around technique in a fixed-path interferometer; for mass density: Vibrating tube method

Row | viscosity [mPa·s] | speed of sound [m/s] | mass density [kg/m3] | SMILES
1 | 4.623 ± 0.1 | 1303.5 ± 1.6 | 815.652 ± 0.24 | CCCCCCO [hexan-1-ol]
2 | 11.81 ± 0.28 | 1379.4 ± 1.6 | 826.489 ± 0.24 | CCCCCCCCCCO [decan-1-ol]
3 | 7.68 ± 0.17 | 1347.3 ± 1.6 | 821.877 ± 0.24 | CCCCCCCCO [octan-1-ol]

Row | SMILES | viscosity [mPa·s] | speed of sound [m/s] | mass density [kg/m3]
4 | CCCCOCCO [2-butoxyethan-1-ol] | 2.885 ± 0.063 | 1306 ± 1.6 | 896.312 ± 0.24
